What was measured:
patients [1] = assay: Randomized open-label study: change in BMD by DEXA, bicalutamide 150 mg daily vs medical castration; type: in vivo, human; conditions: for lumbar spine BMD increase compared to pre-treatment baseline: 150 mg
Experimental: Inclusion criteria for a prospective, multicentre, randomized, open-label, parallel-group study, included: disease stage T1-T4, Nx, and M0 for which immediate hormonal ablation was indicated; and Eastern Cooperative Oncology Group (ECOG) performance status 0 or 1.
Patients were randomized in a 1:1 ratio to receive either bicalutamide 150 mg daily or medical castration with a luteinizing hormone-releasing hormone (LHRH) agonist for 2 years.
Primary efficacy endpoints were percentage change from baseline in BMD measures (lumbar spine and hip) at 96 weeks.
An analysis of covariance (ANCOVA) model was used to analyse the primary efficacy endpoints. Analysis was performed for patients for whom data were available at baseline and at Week 96. Subsidiary analyses were performed, carrying forward the last patient assessment at time points where data were missing. A p value of ≦0.017 was considered statistically significant.
Secondary endpoints included: percentage change in lumbar spine-BMD and hip-BMD from baseline to 24, 48 and 72 weeks.
Secondary efficacy endpoints were also analyzed using an ANCOVA model. BMD were assessed via dual energy X-ray absorptiometry (DEXA).
103 patients were recruited to the study and randomized 1:1 to receive either bicalutamide (R/S racemate) 150 mg (n=51) or medical castration (n=52). • The treatment groups were well balanced at baseline (Table 1). • The median testosterone level at baseline was 414.7 ng/dL in the bicalutamide 150 mg group (n=48) and 477.9 ng/dL in the medical castration group (n=52). • Median baseline values for albumin, total calcium, 25-hydroxy vitamin D, and thyroid-stimulating hormone were similar in the two treatment groups. Bone Mineral Density

humans = conditions: single agent therapy, blood; cited from earlier work
patients [2] = conditions: Casodex 150 monotherapy, preliminary data; cited from earlier work
adult men = conditions: cited from earlier work

| Compound | lumbar spine BMD increase compared to pre-treatment baseline (patients [1]; 24 weeks) [%] | lumbar spine BMD increase compared to pre-treatment baseline (patients [1]; 48 weeks) [%] | lumbar spine BMD increase compared to pre-treatment baseline (patients [1]; 72 weeks) [%] | BMD compared to baseline (in words) (patients [1]; in vivo) | basal level of total testosterone (humans) | bone mineral density (in words) (patients [2]) | testosterone and LH (in words) (adult men) |
| --- | --- | --- | --- | --- | --- | --- | --- |
| CC(O)(CS(=O)(=O)c1ccc(F)cc1)C(=O)Nc1ccc(C#N)c(C(F)(F)F)c1 (stereo not drawn) [Bicalutamide, 4′-cyano-α′,α′,α′-trifluoro-3-(4-fluorophenylsulphonyl)-2-hydroxy-2-methylpropiono-m-toluidide] | 1.05 | 1.76 | 2.22 | statistically significant increase in BMD compared to baseline | approximate doubling | maintains bone mineral density | – |
| CC/C(=C(\c1ccccc1)c1ccc(OCCN(C)C)cc1)c1ccccc1 [tamoxifen] | – | – | – | – | – | – | increase testosterone and LH |

— patent publication US20050288230A1, “Non-steroidal anti-androgen therapy” (AstraZeneca AB, priority 2002, published 2005)
